Experimental findings from patent US11254668B2, “Pyrazolo[1,5-A]pyrazin-4-yl and related derivatives” (Pfizer Inc., priority 2017, dated 2022) are described below.

SMILES strings stand for the structures.

Holding throughout (type): biochemical
For one assay, the target named is TYK2 (Homo sapiens (Human), UniProt P29597). Description: JAK Caliper Enzyme Assay at 1 mM ATP, TYK2. Put shortly:
(§1)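 Peptide phosphorylation by recombinant human kinase domain, 1 mM ATP, room temperature, EDTA-terminated, detected by microfluidic mobility shift; % effect normalised to DMSO baseline.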

The target of a further assay is JAK3 (Homo sapiens (Human), UniProt P52333). Description: JAK Caliper Enzyme Assay at 1 mM ATP, JAK3. Put shortly:
(§2)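 IC50 (nM) derived from percent conversion of fluorescently labelled peptide, measured by Caliper LabChip mobility-shift separation after EDTA stop. Each JAK family kinase domain (human, recombinant) run at 1 mM ATP and room temperature, conditions set to 20-30% product; DMSO wells define uninhibited baseline.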

The target in a further assay is JAK2 (Homo sapiens (Human), UniProt O60674). Description: JAK Caliper Enzyme Assay at 1 mM ATP, JAK2. Put shortly:
as §1

The next assay concerns the target JAK1 (Homo sapiens (Human), UniProt P23458). Description: JAK Caliper Enzyme Assay at 1 mM ATP, JAK1. Put shortly:
as §2

JAK3, sequence (P52333 822-1111): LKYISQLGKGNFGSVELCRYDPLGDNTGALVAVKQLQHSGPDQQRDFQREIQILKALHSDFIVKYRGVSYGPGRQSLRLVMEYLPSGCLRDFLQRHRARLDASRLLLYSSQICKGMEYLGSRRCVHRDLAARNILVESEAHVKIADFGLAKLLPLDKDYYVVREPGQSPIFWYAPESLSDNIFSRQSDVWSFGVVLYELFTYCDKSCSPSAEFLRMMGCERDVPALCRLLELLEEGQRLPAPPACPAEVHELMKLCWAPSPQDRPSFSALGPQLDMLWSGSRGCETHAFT
TYK2, sequence (P29597 897-1176): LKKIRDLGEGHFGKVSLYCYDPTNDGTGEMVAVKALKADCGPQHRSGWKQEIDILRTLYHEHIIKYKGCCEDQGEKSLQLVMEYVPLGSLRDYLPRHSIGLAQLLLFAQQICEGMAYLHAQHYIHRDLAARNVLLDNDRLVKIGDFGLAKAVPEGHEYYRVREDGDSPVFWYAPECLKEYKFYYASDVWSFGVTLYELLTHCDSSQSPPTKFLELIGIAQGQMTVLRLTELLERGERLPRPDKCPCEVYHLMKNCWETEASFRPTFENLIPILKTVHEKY
JAK2, sequence (O60674 849-1124): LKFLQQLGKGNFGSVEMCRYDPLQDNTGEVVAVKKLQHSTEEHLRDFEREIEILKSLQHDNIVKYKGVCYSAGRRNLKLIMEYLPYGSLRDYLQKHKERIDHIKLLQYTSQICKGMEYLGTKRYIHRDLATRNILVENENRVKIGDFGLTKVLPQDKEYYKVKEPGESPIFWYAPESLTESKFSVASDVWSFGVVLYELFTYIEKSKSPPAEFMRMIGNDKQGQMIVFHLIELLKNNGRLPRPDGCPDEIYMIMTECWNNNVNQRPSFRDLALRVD
JAK1, sequence (P23458 875-1153): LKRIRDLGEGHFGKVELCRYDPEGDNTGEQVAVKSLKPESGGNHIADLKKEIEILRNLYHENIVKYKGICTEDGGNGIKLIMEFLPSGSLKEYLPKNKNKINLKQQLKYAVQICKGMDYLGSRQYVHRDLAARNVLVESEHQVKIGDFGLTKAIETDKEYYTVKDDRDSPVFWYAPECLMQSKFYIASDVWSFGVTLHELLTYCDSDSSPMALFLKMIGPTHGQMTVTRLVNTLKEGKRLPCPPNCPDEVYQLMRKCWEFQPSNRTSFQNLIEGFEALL

Consider `CCN1CC(CC#N)(n2ccc(-c3nc(-c4cc(N)n(C)n4)cc4ncccc34)n2)C1` [Example 64, (3-{3-[7-(5-amino-1-methyl-1H-pyrazol-3-yl)-1,6-naphthyridin-5-yl]-1H-pyrazol-1-yl}-1-ethylazetidin-3-yl)acetonitrile], for which the IC50 (in general, the concentration at which inhibition is half-maximal) at TYK2 is 440 nM; on JAK3, above 10000 nM; on JAK2, 5900 nM; at JAK1, above 10000 nM.
Consider `Cn1nc(-c2cc3ncccc3c(-c3ccn([C@]4(CC#N)C[C@](C)(C#N)C4)n3)n2)cc1N` [Example 67, cis-3-{3-[7-(5-amino-1-methyl-1H-pyrazol-3-yl)-1,6-naphthyridin-5-yl]-1H-pyrazol-1-yl}-3-(cyanomethyl)-1-methylcyclobutanecarbonitrile], for which the IC50 at TYK2 was 39 nM; on JAK3, above 10000 nM; at JAK2, 246 nM; at JAK1 it was 2180 nM.
For `Cn1nc(-c2cc3ncccc3c(-c3ccn([C@]4(CC#N)C[C@@](C)(C#N)C4)n3)n2)cc1N` [Example 68, trans-3-{3-[7-(5-amino-1-methyl-1H-pyrazol-3-yl)-1,6-naphthyridin-5-yl]-1H-pyrazol-1-yl}-3-(cyanomethyl)-1-methylcyclobutanecarbonitrile] the same measures were 1590 nM, above 10000 nM, 4330 nM and above 10000 nM.
For `CNc1cc(-c2cc3ncccc3c(-c3ccn([C@]4(CC#N)C[C@H](C#N)C4)n3)n2)nn1C` [Example 69, cis-3-(cyanomethyl)-3-(3-{7-[1-methyl-5-(methylamino)-1H-pyrazol-3-yl]-,6-naphthyridin-5-yl}-1H-pyrazol-1-yl)cyclobutanecarbonitrile] the same measures were 158 nM, above 10000 nM, 556 nM and 3400 nM.
`CNc1cc(-c2cc3ncccc3c(-c3ccn([C@]4(CC#N)C[C@@H](C#N)C4)n3)n2)nn1C` [Example 70, trans-3-(cyanomethyl)-3-(3-{7-[1-methyl-5-(methylamino)-1H-pyrazol-3-yl]-1,6-naphthyridin-5-yl}-1H-pyrazol-1-yl)cyclobutanecarbonitrile]: the IC50 is 661 nM at TYK2, above 10000 nM at JAK3, 3500 nM on JAK2 and above 10000 nM on JAK1.
With `Cn1nc(-c2cc3ncccc3c(-c3ccn([C@]4(CC#N)C[C@@H](C#N)C4)n3)n2)cc1CN` [Example 71, trans-3-(3-{7-[5-(aminomethyl)-1-methyl-1H-pyrazol-3-yl]-1,6-naphthyridin-5-yl}-1H-pyrazol-1-yl)-3-(cyanomethyl)cyclobutanecarbonitrile], the IC50 on TYK2 is 109 nM; on JAK3 it was 7930 nM; on JAK2 it was 205 nM; at JAK1 it was 3720 nM.
For `N#CCC1(n2ccc(-c3nc(-c4cc5n(n4)CCNC5)cc4ncccc34)n2)CC(C#N)C1` (stereo not drawn) [Example 72, cis-3-(cyanomethyl)-3-{3-[7-(4,5,6,7-tetrahydropyrazolo[1,5-a]pyrazin-2-yl)-1,6-naphthyridin-5-yl]-1H-pyrazol-1-yl}cyclobutanecarbonitrile] the same measures were 28 nM, 5100 nM, 48 nM and 676 nM.
`N#CC[C@]1(n2ccc(-c3nc(-c4cc5n(n4)CCNC5)cc4ncccc34)n2)C[C@H](C#N)C1` [Example 73, trans-3-(cyanomethyl)-3-{3-[7-(4,5,6,7-tetrahydropyrazolo[1,5-a]pyrazin-2-yl)-1,6-naphthyridin-5-yl]-1H-pyrazol-1-yl}cyclobutanecarbonitrile]: the IC50 on TYK2 is 33 nM; on JAK3 it was above 10000 nM; at JAK2 it was 206 nM; on JAK1 it was 4630 nM.
For `N#CCC1(n2ccc(-c3nc(-c4cn[nH]c4)cc4ncccc34)n2)CN(CC(F)(F)F)C1` [Example 74, [3-{3-[7-(1H-pyrazol-4-yl)-1,6-naphthyridin-5-yl]-1H-pyrazol-1-yl}-1-(2,2,2-trifluoroethyl)azetidin-3-yl]acetonitrile] the same measures were 13 nM, 9660 nM, 267 nM and 217 nM.
For `CS(=O)(=O)N1CC(CC#N)(n2ccc(-c3nc(-c4cn[nH]c4)cc4ncccc34)n2)C1` [Example 75, [1-(methylsulfonyl)-3-{3-[7-(1H-pyrazol-4-yl)-1,6-naphthyridin-5-yl]-1H-pyrazol-1-yl}azetidin-3-yl]acetonitrile], the half-inhibitory concentration (IC50) at TYK2 was 46 nM; at JAK3, above 10000 nM; at JAK2, 444 nM; at JAK1, 679 nM.
Take `N#CCC1(n2ccc(-c3nc(-c4cn[nH]c4)cc4ncccc34)n2)CC(C#N)C1` (stereo not drawn) [Example 76, cis-3-(cyanomethyl)-3-{3-[7-(1H-pyrazol-4-yl)-1,6-naphthyridin-5-yl]-1H-pyrazol-1-yl}cyclobutanecarbonitrile]: the IC50 was 7 nM at TYK2, 1540 nM on JAK3, 33 nM at JAK2 and 35 nM on JAK1.
With `N#CC[C@]1(n2ccc(-c3nc(-c4cn[nH]c4)cc4ncccc34)n2)C[C@H](C#N)C1` [Example 77, trans-3-(cyanomethyl)-3-{3-[7-(1H-pyrazol-4-yl)-1,6-naphthyridin-5-yl]-1H-pyrazol-1-yl}cyclobutanecarbonitrile], the IC50 at TYK2 was 25 nM; on JAK3 it was above 10000 nM; on JAK2 it was 242 nM; at JAK1 it was 293 nM.
As for `N#CC[C@H]1C[C@](CC#N)(n2ccc(-c3nc(-c4cn[nH]c4)cc4ncccc34)n2)C1` [Example 79, 2,2′-(trans-1-{3-[7-(1H-pyrazol-4-yl)-1,6-naphthyridin-5-yl]-1H-pyrazol-1-yl}cyclobutane-1,3-diyl)diacetonitrile], the IC50 was 74 nM at TYK2, above 10000 nM on JAK3, 774 nM on JAK2 and 1050 nM on JAK1.
In the case of `CO[C@H]1C[C@@](CC#N)(n2ccc(-c3nc(-c4cn[nH]c4)cc4ncccc34)n2)C1` [Example 80, (cis-3-methoxy-1-{3-[7-(1H-pyrazol-4-yl)-1,6-naphthyridin-5-yl]-1H-pyrazol-1-yl}cyclobutyl)acetonitrile], the IC50 is 47 nM on TYK2, above 10000 nM on JAK3, 927 nM on JAK2 and 1060 nM at JAK1.
Regarding `CO[C@H]1C[C@](CC#N)(n2ccc(-c3nc(-c4cn[nH]c4)cc4ncccc34)n2)C1` [Example 81, (trans-3-methoxy-1-{3-[7-(1H-pyrazol-4-yl)-1,6-naphthyridin-5-yl]-1H-pyrazol-1-yl}cyclobutyl)acetonitrile], the IC50 at TYK2 was 101 nM; at JAK3 it was above 10000 nM; at JAK2, 2170 nM; at JAK1 it was 3090 nM.
For the molecule `CC(C)(O)[C@H]1C[C@@](CC#N)(n2ccc(-c3nc(-c4cn[nH]c4)cc4ncccc34)n2)C1` [Example 82, [cis-3-(2-hydroxpropan-2-yl)-1-{3-[7-(1H-pyrazol-4-yl)-1,6-naphthyridin-5-yl]-1H-pyrazol-1-yl}cyclobutyl]acetonitrile], the IC50 on TYK2 was 418 nM; on JAK3, above 10000 nM; on JAK2, 2390 nM; on JAK1 it was 3580 nM.
Consider `C[C@]1(C#N)C[C@](CC#N)(n2ccc(-c3nc(-c4cn[nH]c4)cc4ncccc34)n2)C1` [Example 83, trans-3-(cyanomethyl)-1-methyl-3-{3-[7-(1H-pyrazol-4-yl)-1,6-naphthyridin-5-yl]-1H-pyrazol-1-yl}cyclobutanecarbonitrile], for which the IC50 on TYK2 was 410 nM; on JAK3 it was above 10000 nM; on JAK2, 2450 nM; at JAK1 it was 2240 nM.
For `C[C@]1(C#N)C[C@@](CC#N)(n2ccc(-c3nc(-c4cn[nH]c4)cc4ncccc34)n2)C1` [Example 84, cis-3-(cyanomethyl)-1-methyl-3-{3-[7-(1H-pyrazol-4-yl)-1,6-naphthyridin-5-yl]-1H-pyrazol-1-yl}cyclobutanecarbonitrile] the same measures were 22 nM, above 10000 nM, 174 nM and 240 nM.
For `N#CC[C@]1(n2ccc(-c3nc(-c4cn[nH]c4)cc4ncccc34)n2)C[C@@H](c2ccn[nH]2)C1` [Example 85, [cis-3-(1H-pyrazol-5-yl)-1-{3-[7-(1H-pyrazol-4-yl)-1,6-naphthyridin-5-yl]-1H-pyrazol-1-yl}cyclobutyl]acetonitrile] the same measures were 30 nM, 5240 nM, 103 nM and 166 nM.
Turning to `Cc1n[nH]cc1-c1cc2ncccc2c(-c2ccn(C3(CC#N)CN(S(C)(=O)=O)C3)n2)n1` [Example 88, [3-{3-[7-(3-methyl-1H-pyrazol-4-yl)-1,6-naphthyridin-5-yl]-1H-pyrazol-1-yl}-1-(methylsulfonyl)azetidin-3-yl]acetonitrile], the IC50 at TYK2 is 60 nM; on JAK3, above 10000 nM; at JAK2, 875 nM; on JAK1, 1620 nM.
For `Cc1n[nH]cc1-c1cc2ncccc2c(-c2ccn([C@]3(CC#N)C[C@@H](C#N)C3)n2)n1` [Example 89, trans-3-(cyanomethyl)-3-{3-[7-(3-methyl-1H-pyrazol-4-yl)-1,6-naphthyridin-5-yl]-1H-pyrazol-1-yl}cyclobutanecarbonitrile], the IC50 was 89 nM at TYK2, above 10000 nM at JAK3, 770 nM at JAK2 and 1320 nM at JAK1.
